Experimental data from publication PMC8068801, “Novel Benzenesulfonate Scaffolds with a High Anticancer Activity and G2/M Cell Cycle Arrest” (Cancers, 2021).

How the values were obtained:
HCT 116 p53^+/+ cells = assay: MTS cytotoxicity assay, HCT 116 p53+/+; type: cell-based, human
From the text: (§1) M. Rusin from the Maria Sklodowska-Curie Memorial Cancer Centre and Institute of Oncology in Gliwice, Poland. […] G. Kramer-Marek from the Institute of Cancer Research in London, United Kingdom. The human suspension chronic myelogenous leukemia cell line K562 and pancreas ductal adenocarcinoma cell line PANC-1 were purchased from Sigma-Aldrich (St. Louis, MO, USA), while the normal human dermal fibroblasts cell line NHDF were purchased from PromoCell. […] Each medium contained a combination of two antibiotics: penicillin and streptomycin (1% v/v; Gibco). All of these cell lines were grown under standard conditions at 37 °C with a 5% CO2 humidified atmosphere. Moreover, all of the cell lines were routinely tested for mycoplasma using the PCR technique with specific Mycoplasma primers to confirm that there was no contamination.
(§2) The assay was performed following a 72 h incubation with the various concentrations of the tested compounds. Then, 100 µL DMEM without phenol red with 20 µL of the CellTiter 96®AQueous One Solution-MTS (Promega, Promega, WI, USA) was added to each well and incubated for 1 h or 3 h (PANC-1) at 37 °C. The optical densities of the samples were measured at 490 nm using a multi-plate reader (Synergy 4, BioTek, Winooski, VT, USA). […] Each individual compound was tested in triplicate in a single experiment with each experiment being performed three or four times.

HCT 116 p53^−/− cells = assay: MTS cytotoxicity assay, HCT 116 p53-/-; type: cell-based, human
From the text: as §1, §2

MCF-7 cells = assay: MTS cytotoxicity assay, MCF-7; type: cell-based, human
From the text: as §1, §2

A549 cells = assay: MTS cytotoxicity assay, A549; type: cell-based, human
From the text: as §1, §2

ABL1 = molecular target: T1, ABL1 (Homo sapiens, UniProt P00519); assay: Tyrosine kinase assay (Kinase Selectivity TK-2, ADP-Glo); type: biochemical; conditions: read-out: Inhibitory Effect of the Tyrosine Kinase Activity, ABL1
T1 construct: purchased Promega
Procedure: (§3) Assays using the Kinase Selectivity TK-2 profiling systems and ADP-Glo Kinase Assay (both from Promega) were performed to determine the inhibition of the non-receptor tyrosine kinases. The protocol was previously designed and described by our group in reports. The experiments were performed at least four times. The data are expressed as the percentage of the inhibition activity of tyrosine kinase after treatment with the tested derivatives.

BRK = molecular target: T2, BRK (Homo sapiens, UniProt Q13882); assay: as above; type: biochemical; conditions: read-out: Inhibitory Effect of the Tyrosine Kinase Activity, BRK
T2 construct: purchased Promega
Procedure: as §3

BTK = molecular target: T3, BTK (Homo sapiens, UniProt Q06187); assay: as above; type: biochemical; conditions: read-out: Inhibitory Effect of the Tyrosine Kinase Activity, BTK
T3 construct: purchased Promega
Procedure: as §3

CSK = molecular target: T4, CSK (Homo sapiens, UniProt P41240); assay: as above; type: biochemical; conditions: read-out: Inhibitory Effect of the Tyrosine Kinase Activity, CSK
T4 construct: purchased Promega
Procedure: as §3

Fyn A = molecular target: T5, Fyn A (Homo sapiens, UniProt P06241); assay: as above; type: biochemical; conditions: read-out: Inhibitory Effect of the Tyrosine Kinase Activity, Fyn A
T5 construct: purchased Promega
Procedure: as §3

Lck = molecular target: T6, Lck (Homo sapiens, UniProt P06239); assay: as above; type: biochemical; conditions: read-out: Inhibitory Effect of the Tyrosine Kinase Activity, Lck
T6 construct: purchased Promega
Procedure: as §3

Lyn B = molecular target: T7, Lyn B (Homo sapiens, UniProt P07948); assay: as above; type: biochemical; conditions: read-out: Inhibitory Effect of the Tyrosine Kinase Activity, Lyn B
T7 construct: purchased Promega
Procedure: as §3

Src = molecular target: T8, Src (Homo sapiens, UniProt P12931); assay: as above; type: biochemical; conditions: read-out: Inhibitory Effect of the Tyrosine Kinase Activity, Src
T8 construct: purchased Promega
Procedure: as §3

U-251 cells = assay: Immunoblotting with densitometry, U-251; type: cell-based, human
Procedure: The K562 and U-251 cells were seeded in 3 cm Petri dishes (Nunc) at a density of 500,000 cells per well and incubated overnight. […] Next, the cell pellets were resuspended in an RIPA buffer containing a Halt Protease Inhibitor Cocktail and a Halt Phosphatase Inhibitor Cocktail along with 0.5 M EDTA (all from Thermo Scientific, Waltham, MA, USA) and lysed on ice for 20 min. Then, the obtained lysates were sonicated and centrifuged at 10,000 rpm for 10 min at 4 °C. The supernatants were collected for further analysis. The protein concentration was measured using a Micro BCA™ Protein Assay Kit (Thermo Scientific) according to the manufacturer’s instructions. Equal amounts of the proteins (16 μg) were electrophoresed on SDS-Page gels and transferred onto nitrocellulose membranes. The membranes were blocked in 5% non-fat milk prepared in TPBS (PBS containing 0.1% Tween-20) for 1 h. After blocking, the membranes were incubated with the specific primary antibodies (all from Cell Signaling) at a 1:1000 dilution—cyclin E, cdc2, PARP, AIF, BID, p53, p21^Waf1/Cip1, HIF-1α, cathepsin B and caspase-9—and at a 1:2000 dilution for the reference proteins—vinculin, β-actin and GAPDH—overnight at 4 °C. The next day, the membranes were washed in TPBS and incubated with horseradish peroxidase (HRP)-conjugated secondary antibodies for 1 h at room temperature. Lastly, the membranes were washed in TPBS and incubated with a SuperSignal™ West Pico Chemiluminescent Substrate (Thermo Scientific). The chemiluminescence signals were captured using a ChemiDoc™ XRS + System (Biorad). The experiments were performed at least four to five times. The densitometric analysis was conducted using ImageJ software (Wayne Rasband, National Institutes of Health, Bethesda, MD, USA).
The band intensity of tested proteins (p53, cyclin E1, cdc2, p21, HIF-1α, cathepsin b, PARP, caspase-9, BID, AIF) were analyzed by densitometry readings/intensity ratio, using ImageJ software (NIH) and were normalized to the corresponding reference proteins (GAPDH, vinculin or β-actin) value.
The densitometric readings/intensity ratio data from four/five independent experiments (compared to control): […]
p53/ Refer- p21/ Refer- cdc2/ Refer- Cyclin E1/ HIF-1α/ Cathepsin b/Reference ence ence ence Reference Reference
PARP/Reference BID/ Reference Caspase-9/Reference […]

[1] = U-251, 4µM, 24 h, control 0.330
[2] = U-251, 4µM, 24 h, control 1.000

T7 sequence (P07948 1-491 isoform P07948-2): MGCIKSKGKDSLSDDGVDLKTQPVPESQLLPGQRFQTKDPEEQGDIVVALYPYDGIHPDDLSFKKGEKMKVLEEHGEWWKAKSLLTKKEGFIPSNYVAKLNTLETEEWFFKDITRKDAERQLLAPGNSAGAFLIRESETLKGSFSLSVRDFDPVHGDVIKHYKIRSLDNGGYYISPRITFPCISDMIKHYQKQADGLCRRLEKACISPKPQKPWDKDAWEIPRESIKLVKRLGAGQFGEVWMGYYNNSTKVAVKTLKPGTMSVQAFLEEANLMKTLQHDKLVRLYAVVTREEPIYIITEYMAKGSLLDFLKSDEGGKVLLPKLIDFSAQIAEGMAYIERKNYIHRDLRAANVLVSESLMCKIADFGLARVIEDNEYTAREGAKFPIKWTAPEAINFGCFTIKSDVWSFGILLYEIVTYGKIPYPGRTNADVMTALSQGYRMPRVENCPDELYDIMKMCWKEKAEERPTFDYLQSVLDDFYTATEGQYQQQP
T6 sequence (P06239 whole entry): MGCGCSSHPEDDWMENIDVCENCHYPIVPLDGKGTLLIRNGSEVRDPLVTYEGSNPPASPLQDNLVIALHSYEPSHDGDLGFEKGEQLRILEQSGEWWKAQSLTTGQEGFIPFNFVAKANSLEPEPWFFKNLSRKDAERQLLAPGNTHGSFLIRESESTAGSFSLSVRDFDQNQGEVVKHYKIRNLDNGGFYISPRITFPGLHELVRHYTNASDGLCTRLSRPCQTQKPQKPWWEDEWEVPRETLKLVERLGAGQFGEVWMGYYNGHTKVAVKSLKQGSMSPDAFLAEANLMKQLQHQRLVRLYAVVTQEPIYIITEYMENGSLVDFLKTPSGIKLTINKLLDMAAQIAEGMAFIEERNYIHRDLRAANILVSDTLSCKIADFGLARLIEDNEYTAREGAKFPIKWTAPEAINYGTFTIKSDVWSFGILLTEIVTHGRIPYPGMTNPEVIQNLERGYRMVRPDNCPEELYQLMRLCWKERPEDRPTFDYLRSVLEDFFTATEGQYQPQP
T8 sequence (P12931 whole entry): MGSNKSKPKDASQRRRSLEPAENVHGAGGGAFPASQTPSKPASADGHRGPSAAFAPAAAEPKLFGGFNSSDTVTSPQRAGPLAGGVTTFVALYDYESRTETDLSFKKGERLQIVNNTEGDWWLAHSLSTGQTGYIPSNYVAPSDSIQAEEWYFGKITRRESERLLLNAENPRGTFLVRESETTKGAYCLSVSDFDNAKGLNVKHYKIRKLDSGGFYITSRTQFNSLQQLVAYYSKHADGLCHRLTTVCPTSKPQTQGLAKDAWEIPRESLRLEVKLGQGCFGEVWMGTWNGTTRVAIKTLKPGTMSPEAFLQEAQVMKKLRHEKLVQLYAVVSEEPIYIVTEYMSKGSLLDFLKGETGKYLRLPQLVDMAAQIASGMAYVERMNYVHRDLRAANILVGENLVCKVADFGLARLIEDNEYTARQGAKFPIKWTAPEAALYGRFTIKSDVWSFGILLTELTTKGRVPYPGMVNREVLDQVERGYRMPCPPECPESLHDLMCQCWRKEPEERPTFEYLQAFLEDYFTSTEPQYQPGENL
T1 sequence (P00519 whole entry): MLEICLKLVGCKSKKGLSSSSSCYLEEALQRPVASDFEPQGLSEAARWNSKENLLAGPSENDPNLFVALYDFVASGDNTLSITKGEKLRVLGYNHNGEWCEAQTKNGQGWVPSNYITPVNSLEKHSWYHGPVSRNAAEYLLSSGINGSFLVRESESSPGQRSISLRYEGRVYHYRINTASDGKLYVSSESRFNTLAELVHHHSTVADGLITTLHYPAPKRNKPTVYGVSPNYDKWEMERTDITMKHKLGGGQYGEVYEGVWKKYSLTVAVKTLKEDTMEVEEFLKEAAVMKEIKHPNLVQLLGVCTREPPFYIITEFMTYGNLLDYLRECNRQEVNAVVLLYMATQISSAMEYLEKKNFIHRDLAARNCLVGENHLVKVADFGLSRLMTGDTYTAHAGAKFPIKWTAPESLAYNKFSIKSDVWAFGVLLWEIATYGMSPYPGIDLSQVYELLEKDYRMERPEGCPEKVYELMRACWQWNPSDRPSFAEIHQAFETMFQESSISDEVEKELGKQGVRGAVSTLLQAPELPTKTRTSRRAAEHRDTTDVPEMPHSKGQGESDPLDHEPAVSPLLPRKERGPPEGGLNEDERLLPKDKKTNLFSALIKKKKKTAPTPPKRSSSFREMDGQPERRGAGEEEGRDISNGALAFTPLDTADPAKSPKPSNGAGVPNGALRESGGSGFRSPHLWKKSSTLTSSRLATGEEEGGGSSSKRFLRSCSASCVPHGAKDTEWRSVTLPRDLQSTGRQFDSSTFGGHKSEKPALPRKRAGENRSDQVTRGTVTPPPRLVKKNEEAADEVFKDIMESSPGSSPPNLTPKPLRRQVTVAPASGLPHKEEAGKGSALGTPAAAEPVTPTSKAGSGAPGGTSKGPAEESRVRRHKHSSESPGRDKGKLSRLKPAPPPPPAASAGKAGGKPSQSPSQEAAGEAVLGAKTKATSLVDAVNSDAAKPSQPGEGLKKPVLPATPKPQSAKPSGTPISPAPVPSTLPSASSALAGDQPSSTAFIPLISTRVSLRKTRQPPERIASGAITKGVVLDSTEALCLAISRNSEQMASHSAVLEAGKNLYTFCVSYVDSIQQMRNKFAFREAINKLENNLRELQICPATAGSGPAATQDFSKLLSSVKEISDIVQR
T3 sequence (Q06187 whole entry): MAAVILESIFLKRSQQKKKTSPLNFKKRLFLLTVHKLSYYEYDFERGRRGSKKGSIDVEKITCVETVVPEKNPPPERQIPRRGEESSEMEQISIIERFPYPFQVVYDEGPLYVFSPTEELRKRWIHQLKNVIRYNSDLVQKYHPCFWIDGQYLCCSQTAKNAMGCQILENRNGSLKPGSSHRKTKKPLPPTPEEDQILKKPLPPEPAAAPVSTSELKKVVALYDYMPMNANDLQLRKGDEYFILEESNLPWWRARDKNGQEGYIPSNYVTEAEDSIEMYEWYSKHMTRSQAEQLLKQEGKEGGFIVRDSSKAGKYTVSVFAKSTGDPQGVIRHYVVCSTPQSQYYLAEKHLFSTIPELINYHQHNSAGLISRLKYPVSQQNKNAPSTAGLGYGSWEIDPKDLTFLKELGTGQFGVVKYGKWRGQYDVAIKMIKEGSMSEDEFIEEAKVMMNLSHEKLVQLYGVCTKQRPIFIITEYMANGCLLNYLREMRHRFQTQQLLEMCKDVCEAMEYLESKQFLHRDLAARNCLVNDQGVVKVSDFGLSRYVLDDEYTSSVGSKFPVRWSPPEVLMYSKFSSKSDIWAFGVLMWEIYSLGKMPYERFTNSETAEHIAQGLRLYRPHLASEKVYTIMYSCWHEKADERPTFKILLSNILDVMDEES
T2 sequence (Q13882 whole entry): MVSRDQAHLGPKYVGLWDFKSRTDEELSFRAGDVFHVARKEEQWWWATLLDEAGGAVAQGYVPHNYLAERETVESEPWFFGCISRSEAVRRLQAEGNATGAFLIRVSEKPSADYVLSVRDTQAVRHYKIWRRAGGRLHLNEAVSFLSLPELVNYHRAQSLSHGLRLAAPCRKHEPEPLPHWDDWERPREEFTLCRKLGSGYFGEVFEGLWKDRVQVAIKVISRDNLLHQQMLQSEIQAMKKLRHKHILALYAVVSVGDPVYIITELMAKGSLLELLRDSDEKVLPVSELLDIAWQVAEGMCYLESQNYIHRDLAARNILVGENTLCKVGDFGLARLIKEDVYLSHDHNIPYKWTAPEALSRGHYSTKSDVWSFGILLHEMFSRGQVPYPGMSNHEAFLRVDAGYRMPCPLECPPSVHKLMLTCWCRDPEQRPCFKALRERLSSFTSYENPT
T5 sequence (P06241 whole entry): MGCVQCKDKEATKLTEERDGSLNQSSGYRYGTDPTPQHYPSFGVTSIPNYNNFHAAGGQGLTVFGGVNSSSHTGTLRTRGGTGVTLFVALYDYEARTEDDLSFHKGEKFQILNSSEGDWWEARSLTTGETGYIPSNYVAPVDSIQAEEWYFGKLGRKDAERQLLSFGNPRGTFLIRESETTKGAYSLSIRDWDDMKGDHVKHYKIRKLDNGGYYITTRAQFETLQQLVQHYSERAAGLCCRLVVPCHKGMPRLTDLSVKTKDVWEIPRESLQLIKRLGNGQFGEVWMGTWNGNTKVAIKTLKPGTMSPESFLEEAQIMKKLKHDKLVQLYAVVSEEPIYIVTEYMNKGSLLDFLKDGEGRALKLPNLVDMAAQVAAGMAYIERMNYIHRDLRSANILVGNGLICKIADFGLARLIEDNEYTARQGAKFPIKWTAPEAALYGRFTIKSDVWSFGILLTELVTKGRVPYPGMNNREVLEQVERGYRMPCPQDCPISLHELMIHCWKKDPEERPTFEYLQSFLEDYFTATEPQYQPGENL

inhibition at 0.5 µM (ABL1): 28.4%
inhibition at 0.5 µM (BRK): 15.3%
inhibition at 0.5 µM (BTK): 18.8%
inhibition at 0.5 µM (CSK): 0%
inhibition at 0.5 µM (Fyn A): 23.7%
inhibition at 0.5 µM (Lck): 25.8%
inhibition at 0.5 µM (Lyn B): 0%
inhibition at 0.5 µM (Src): 0.19%
Structure (SMILES): COc1ccccc1/C=C/c1nc(OS(=O)(=O)c2ccc3c(c2)OCO3)c2ccccc2n1 [BS1, 2-((E)-2-(2-methoxyphenyl)ethenyl)quinazolin-4-yl 1,3-benzodioxole-5-sulfonate]
IC50 (HCT 116 p53^+/+ cells; Homo sapiens, HCT 116 p53^+/+, 72 h incubation, MTS): 880 ± 86 nM
Selectivity index, HCT 116 p53+/+ (HCT 116 p53^+/+ cells; NHDF vs HCT 116 p53+/+): 14.25
IC50 (HCT 116 p53^−/− cells; Homo sapiens, HCT 116 p53^−/−, 72 h incubation, MTS): 563 ± 121 nM
Selectivity index, HCT 116 p53 −/− (HCT 116 p53^−/− cells; NHDF vs HCT 116 p53 −/−): 22.27
IC50 (MCF-7 cells; Homo sapiens, MCF7, MCF-7, 72 h incubation, MTS): 8320 ± 1940 nM
Selectivity index, MCF-7 (MCF-7 cells; NHDF vs MCF-7): 1.51
IC50 (A549 cells; Homo sapiens, A549, 72 h, A549, 72 h incubation, MTS): > 25000 nM
Selectivity index, A549 (A549 cells; NHDF vs A549): 1.00
Cleavage product of caspase-9 (Western blot) (U-251 cells; U-251, 4 µM, 24 h): approximately three-fold increase
PARP/Reference 89 kDa, densitometric intensity ratio (U-251 cells; [1]): 1.044
caspase-9/Reference 37-35 kDa, densitometric intensity ratio (U-251 cells; [1]): 1.485
BID/Reference 22 kDa, densitometric intensity ratio (U-251 cells; [2]): 0.675
Cathepsin b/Reference 44 kDa, densitometric intensity ratio (U-251 cells; [2]): 2.467
HIF-1α/Reference 120 kDa, densitometric intensity ratio (U-251 cells; [2]): 0.550
PARP/Reference 116 kDa, densitometric intensity ratio (U-251 cells; [2]): 0.871
caspase-9/Reference 47 kDa, densitometric intensity ratio (U-251 cells; [2]): 1.167
cdc2/Reference 34 kDa, densitometric intensity ratio (U-251 cells; [2]): 1.986
cyclin E1/Reference 48 kDa, densitometric intensity ratio (U-251 cells; [2]): 0.576
p21/Reference 21 kDa, densitometric intensity ratio (U-251 cells; [2]): 1.932
p53/Reference 53 kDa, densitometric intensity ratio (U-251 cells; [2]): 1.357
Cathepsin b/Reference 27 kDa, densitometric intensity ratio (U-251 cells; U-251, 4µM, 24 h, control 2.837): 2.726
Cathepsin b/Reference 22 kDa, densitometric intensity ratio (U-251 cells; U-251, 4µM, 24 h, control […]): 2.940
HIF-1α protein expression (Western blot) (U-251 cells; U-251, 24 h): significant decrease
p53 protein levels (Western blot) (U-251 cells; U-251, 24 h): slight increase
